The results in this text go back to US9335320B2, “Combinations of phosphoinositide 3-kinase inhibitor compounds and chemotherapeutic agents for the treatment of hematopoietic malignancies” (Genentech, Inc., priority 2009, dated 2016).

By EC50 is commonly meant the concentration at which the effect is half-maximal.

Assay [1] relates to NCI-H929 multiple myeloma xenografts. Briefly: In vivo tumor xenograft efficacy, NCI-H929. Details: species or system mice. The note with it: for antitumor activity (mean tumor volume change): lenalidomide 25 mg/kg ip. From the text: (§1) Xenografts were initiated with cancer cells.
(§2) Animals were monitored for regression responses.

The test system of assay [2] is multiple myeloma OPM-2 cell xenografts. Briefly: In vivo tumor xenograft efficacy, OPM-2. Details: species or system mice. The conditions noted are these: FIG. 13, 24 days; GDC-0941 73 mg/kg po, bortezomib 0.5 mg/kg iv, lenalidomide 25 mg/kg ip, dexamethasone 3 mg/kg po.
Source text: as §1, §2

The subject of the next assay is DoHH2. Briefly: CellTiter-Glo cell proliferation assay, DoHH2. The note with it: for EC50: Homo sapiens.
For a further assay, the system named is OPM2. Briefly: CellTiter-Glo cell proliferation assay, OPM2. Background: Cellular ATP, detected with luciferase, serves as a proxy for viable cell number.
The next assay relates to SC1. Nature of the assay: CellTiter-Glo cell proliferation assay, SC1. The class given is cell-based. The note with it: Homo sapiens, SC-1; SC1 (DLBCL), single agent, Table 2.
The next assay relates to Granta519. Briefly: CellTiter-Glo cell proliferation assay, Granta519. Type of assay: cell-based. The note with it: Homo sapiens, Granta-519; Granta519 (MCL), single agent, Table 2.
The next assay concerns HT. Nature of the assay: CellTiter-Glo cell proliferation assay, HT. The class given is cell-based. The conditions noted are these: Homo sapiens; HT (DLBCL), single agent, Table 2.
The test system of assay [3] is BJAB lymphoma tumor xenografts. Nature of the assay: In vivo tumor xenograft efficacy, BJAB. Details: species or system mice.
Source text: as §1, §2

The subject of the next assay is SUDHL5. Briefly: CellTiter-Glo cell proliferation assay, SUDHL5. The class given is cell-based. The conditions noted are these: Homo sapiens, SU-DHL-5; SUDHL5 (DLBCL), single agent, Table 2.
The subject of a further assay is NCI-H929. Nature of the assay: CellTiter-Glo cell proliferation assay, NCI-H929. The note with it: Homo sapiens, NCI-H929, read-out: EC50 (μM) GDC-0941 (single agent).
A further assay concerns EJM. Nature of the assay: CellTiter-Glo cell proliferation assay, EJM. The note with it: Homo sapiens, read-out: EC50 (μM) GDC-0941 (single agent), Table 4. The class given is cell-based.
Assay [4] deals with primary follicular lymphoma cells from patient NHL600. Briefly: Cell-Titer Glo survival and proliferation assay, primary follicular lymphoma cells. The conditions noted are these: patient NHL600, FIG. 4, single agent. Type of assay: cell-based, human. An excerpt:
GDC-0464 (Genentech, Inc.) is a potent thienopyrimidine PI3K inhibitor (US 2008/0076758). LY294002 (Eli Lilly & Co., CAS Reg. No. 154447-36-6) is also a potent inhibitor of PI3 kinases (WO 2003/035099).

For the next assay, the system named is MOLP-8. Briefly: CellTiter-Glo cell proliferation assay, MOLP-8. The conditions noted are these: Homo sapiens, MOLP-8, read-out: EC50 (μM) GDC-0941 (single agent).
For another assay, the system named is DB. Nature of the assay: CellTiter-Glo cell proliferation assay, DB. The class given is cell-based. The note with it: Homo sapiens; DB (DLBCL), single agent, Table 2.
The next assay relates to RI1. Briefly: CellTiter-Glo cell proliferation assay, RI1. The class given is cell-based. The conditions noted are these: Ri-1; RI1 (B-NHL), single agent, Table 2.
Another assay deals with Bjab. Nature of the assay: CellTiter-Glo cell proliferation assay, Bjab. The conditions noted are these: Homo sapiens.
Another assay relates to MC116. Briefly: CellTiter-Glo cell proliferation assay, MC116. The conditions noted are these: Homo sapiens; MC116 (NHL), single agent, Table 2. The class given is cell-based.
In a further assay the test system is Toledo. Nature of the assay: CellTiter-Glo cell proliferation assay, Toledo. The note with it: Homo sapiens; Toledo (DLBCL), single agent, Table 2. Type of assay: cell-based.
In assay [5] the test system is WSU-DLCL2 lymphoma tumor xenografts. Nature of the assay: In vivo tumor xenograft efficacy, WSU-DLCL2. Further details: species or system mice. The conditions noted are these: for effect on tumor growth (mean tumor volume change): FIG. 18, 25 days, GDC-0941 60 mg/kg po, Formula Ib 1 mg/kg po, Rapamycin 6 mg/kg ip.
Source text: as §1, §2

The next assay has as its system Jeko1. Nature of the assay: CellTiter-Glo cell proliferation assay, Jeko1. Type of assay: cell-based. The note with it: Homo sapiens, JeKo-1; Jeko1 (MCL), single agent, Table 2.
In the next assay the test system is RPMI-8226. Briefly: CellTiter-Glo cell proliferation assay, RPMI-8226. The conditions noted are these: Homo sapiens, RPMI-8226, read-out: EC50 (μM) GDC-0941 (single agent).
A further assay deals with SUDHL6. Briefly: CellTiter-Glo cell proliferation assay, SUDHL6. The conditions noted are these: Homo sapiens, SU-DHL-6; SUDHL6 (DLBCL), single agent, Table 2. The class given is cell-based.
The subject of a further assay is Rec1. Nature of the assay: CellTiter-Glo cell proliferation assay, Rec1. The note with it: Homo sapiens; Rec1 (B-NHL), single agent, Table 2. The class given is cell-based.
The subject of the next assay is WSUNHL. Nature of the assay: CellTiter-Glo cell proliferation assay, WSUNHL. The class given is cell-based. The note with it: Homo sapiens, WSU-NHL, single agent, Table 2.
In assay [6] the test system is p-AKT and p-S6RP in DoHH2, WSU-DLCL2, OPM2, and U266 cells. Briefly: FACS intracellular detection of p-Akt and p-S6 ribosomal protein. Type of assay: cell-based, human. The note with it: 5 μM for 4 hrs, FIGS. 1a and 1b.
Procedure: (§3) B cell lines (DoHH2 and WSU-DLCL2) and Myeloma cell lines (OPM2 and U266) were maintained in RPMI-1640/10% FBS in the presence of Pen/Strep and Glutamine.
Seed 10^7 cells of each cell line in 10 mL culture media in 10 cm Petri dish, 2 dishes for each cell line. • 2. […] Keep cells at 37° C., 5% CO2 incubator for 4 hours before harvesting. • 4. Transfer 1 mL of each condition (equivalent to 10^6 cells) to 5 mL FACS tube (BD) and spin at 1200 rpm for 5 min prior to fixation (harvest the other 9 mL culture-9×10^6 cells to 15 mL conical tube for Western). • 5. Aspirate the supernatant and fix the cells at room temperature with Fix/Perm Medium A (CAT #GAS001S-100) for 15 min. • 6. Wash the cells with PBS/2% FBS 1× • 7. Aspirate the supernatant and permeabilize the cells at room temperature with Fix/Perm Medium B (CAT #GAS002S-100) for 15 min. • 8. Wash the cells with PBS/2% FBS 1× • 9. Resuspend cells with 300 uL PBS/2% BSA and divide cells into 3 tubes 100 uL each (one for isotype-Rabbit IgG Alexa Fluor-647 and one for p-Akt Alexa Fluor-647 clone 193H12 and one for p-S6RP Alexa Fluor-647 clone D57.2.2E, all rabbit abs are from Cell Signaling). • 10. Add 50 ng of each Ab to corresponding tube and incubate at room temperature for 30 min. • 11. Wash the cells with PBS/2% FBS 1× • 12. Resuspend cells with 300 uL PBS/2% BSA and acquire data on FACSCalibur (BD) using CellQuest program. • 13. […]
Assay [7] shares this test system. Briefly: Western blotting for p-Akt, p-BAD and p-S6 ribosomal protein. Type of assay: cell-based, human. The conditions noted are these: 5 μM for 4 hrs, FIG. 2.
Procedure: Cells were treated as indicated and lysates analyzed by Western Blotting. Beta Actin blotting indicates approximately equal loading of lysates in each lane.
as §3
Protocol: • 1. Seed 10^7 cells of each cell line in 10 mL culture media in 10 cm Petri dish, 2 dishes for each cell line. • 2. […] Keep cells at 37° C., 5% CO2 incubator for 4 hours before harvesting. • 4. Harvest 9 mL culture (equivalent to 9×10^6 cells) to 15 mL conical tube and pellet and make cell lysates with 1×SDS sample buffer. Transfer the other 1 mL of each condition (equivalent to 1×10^6 cells) to 5 mL FACS tube (BD) for FACS. • 5. Wash cells once with cold PBS. • 6. Measure the OD of the protein samples and prepare the samples with NuPAGE electrophoresis system reagents to load 20 ug of each. • 7. Mix each protein sample for electrophoresis with appropriate amount of NuPAGE LDS sample buffer and Reducing Agent and apply 70° C. heat for 10 min. • 8. Load 10 uL of SeeBlue Plus2 Pre-stained standard and 20 ug of each sample into 4-12% NuPAGE Norvex Bis-Tris Gel and run with MES-SDS buffer in the presence of antioxidant (135 volts for 1 hour in the XCell SureLock Mini-Cell apparatus). • 9. Transfer gels to the blotting membrane using iBlot apparatus. • 10. […]
The test system of another assay is Ramos. Nature of the assay: CellTiter-Glo cell proliferation assay, Ramos. Type of assay: cell-based. The note with it: Homo sapiens; Ramos (Burkit's), single agent, Table 2.
Another assay deals with WSU-DLCL2. Nature of the assay: CellTiter-Glo cell proliferation assay, WSU-DLCL2. The conditions noted are these: Homo sapiens.
Another assay deals with KSM-12-BM. Briefly: CellTiter-Glo cell proliferation assay, KSM-12-BM. The note with it: Homo sapiens, read-out: EC50 (μM) GDC-0941 (single agent), Table 4. The class given is cell-based.
Assay [8] concerns DoHH2 lymphoma tumor xenografts. Nature of the assay: In vivo tumor xenograft efficacy, DoHH2. The note with it: FIG. 8, 34 days; GDC-0941 73 mg/kg po daily 21 days, rituximab 5 mg/kg iv qwk×3, CHOP.
Source text: The efficacy of the combinations of the invention may be measured in vivo by implanting allografts or xenografts of cancer cells in rodents and treating the tumor-bearing animals with the combinations.
The animals were fed ad libitum water (reverse osmosis, 1 ppm Cl) and NIH 31 Modified and Irradiated Lab Diet® consisting of 18.0% crude protein, 5.0% crude fat, and 5.0% crude fiber. The mice were housed on irradiated ALPHA-Dri® Bed-O'Cobs® Laboratory Animal Bedding in static microisolators on a 12-hour light cycle at 21-22° C. (70-72° F.) and 40-60% humidity.
Xenografts were initiated with cancer cells. […] On the day of tumor implant, each test mouse received 1×10^7 cells (0.2 mL) implanted subcutaneously in the right flank, and tumor growth was monitored as the average size approached the target range of 100 to 150 mm3. […] Volume was calculated using the formula: Tumor Volume (mm^3)=(w^2×l)/2 […]
Tumors were measured twice each week using calipers. Mice were monitored individually, and each animal was euthanized when its tumor reached a volume of 1500 mm3 or at the end of the study on Day 40, whichever came first. […] The time to endpoint (TTE) for each mouse was calculated from the following equation: TTE (days)=[log10(endpoint volume,mm^3)−b]/m […]
The subject of the next assay is OciLy19. Nature of the assay: CellTiter-Glo cell proliferation assay, OciLy19. The note with it: Homo sapiens, OCI-LY19; OciLy19 (DLBCL), single agent, Table 2. Type of assay: cell-based.
For another assay, the system named is SUDHL4. Briefly: CellTiter-Glo cell proliferation assay, SUDHL4. The class given is cell-based. The conditions noted are these: Homo sapiens, SU-DHL-4; SUDHL4 (DLBCL), single agent, Table 2.
In another assay the test system is MM1.S. Nature of the assay: CellTiter-Glo cell proliferation assay, MM1.S. The note with it: Homo sapiens, read-out: EC50 (μM) GDC-0941 (single agent).
A further assay deals with Farage. Briefly: CellTiter-Glo cell proliferation assay, Farage. The class given is cell-based. The note with it: Farage (DLBCL), single agent, Table 2.
Assay [9] has as its system primary diffuse large B-cell lymphoma (DLBCL) cells from patient NHL640-A055. The note with it: patient NHL640-A055, FIG. 5.
Where [10] appears, read: FIG. 16, 33 days, GDC-0941 75 mg/kg po, bortezomib 0.5 mg/kg iv, dexamethasone 3 mg/kg po.

Read-outs that look alike come from different tables or passages of the source.

Procedure for MM1.S: (§4) The in vitro potency of the combinations of Formula I compounds with chemotherapeutic agents was measured by the cell proliferation assay of Example 15; the CellTiter-Glo® Luminescent Cell Viability Assay, commercially available from Promega Corp., Madison, Wis. […] The homogeneous assay procedure involves adding the single reagent (CellTiter-Glo® Reagent) directly to cells cultured in serum-supplemented medium. Cell washing, removal of medium and multiple pipetting steps are not required. The system detects as few as 15 cells/well in a 384-well format in 10 minutes after adding reagent and mixing.
(§5) The individual measured EC50 values of the Formula I compounds and of the chemotherapeutic agent against the particular cell are compared to the combination EC50 value. The combination index (CI) score is calculated by the Chou and Talalay method (Chou, T. and Talalay, P. (1984) Adv. Enzyme Regul. 22:27-55). A CI less than 0.8 indicates synergy. […] The strength of synergy is assessed according to Chou and Talalay.
(§6) The assay assesses the ability of compounds to enter cells and inhibit cell proliferation. The assay principle is based on the determination of the number of viable cells present by quantitating the ATP present in a homogenous assay where addition of the Cell-Titer Glo reagent results in cell lysis and generation of a luminescent signal through the luciferase reaction. […]
Procedure for MOLP-8: as §4, §5, §6
Procedure for RPMI-8226: as §4, §5, §6

Regarding `CC(C)C[C@H](NC(=O)[C@H](Cc1ccccc1)NC(=O)c1cnccn1)B(O)O` [bortezomib, [(1R)-3-methyl-1-({(2S)-3-phenyl-2-[(pyrazin-2-ylcarbonyl)amino]propanoyl}amino)butyl]boronic acid], the “antitumor activity (mean tumor volume change)” value is given as “exceeded by the efficacy of bortezomib” in assay [1] (FIG. 12, 22 days, single agents, GDC-0941 73 mg/kg po, bortezomib 1 mg/kg iv, dexamethasone 10 mg/kg po); “modest activity” in assay [1] (setting [10]); “sub-clinical response which was not different than that of vehicle” in [2]. In [1] (FIG. 12, cohorts of 10 mice), this compound gave a partial responses of 3.

Regarding `C[C@@H]1C[C@H]2[C@@H]3CCC4=CC(=O)C=C[C@]4(C)[C@@]3(F)[C@@H](O)C[C@]2(C)[C@@]1(O)C(=O)CO` [dexamethasone, (8S,9R,10S,11S,13S,14S,16R,17R)-9-fluoro-11,17-dihydroxy-17-(2-hydroxyacetyl)-10,13,16-trimethyl-6,7,8,11,12,14,15,16-octahydrocyclopenta[a]phenanthren-3-one, reference compound], the “single agent activity on viable cells (dose-response)” value in the assay on DoHH2 (B-NHL cell line DoHH2, FIG. 3) is reported as “relatively impotent activity”. The “antitumor activity (mean tumor volume change)” value is “modest activity” in [1] (setting [10]); “indistinguishable and moderate tumor activity” in [2]. Further, the “response in cell proliferation assay” value in the assay with OPM2 (multiple myeloma OPM2 cells, FIG. 6, single agent) is given as “relatively weak response”.

For `CS(=O)(=O)N1CCN(Cc2cc3nc(-c4cccc5[nH]ncc45)nc(N4CCOCC4)c3s2)CC1` [GDC-0941, 4-(2-(1H-indazol-4-yl)-6-((4-(methylsulfonyl)piperazin-1-yl)methyl)thieno[3,2-d]pyrimidin-4-yl)morpholine], the half-maximal effective concentration (EC50) in the assay on SC1 is at least 10000 nM; in the assay on Granta519 it was 210 nM; in the assay on DoHH2 (DOHH-2), 0.26 µM; in the assay with DoHH2 (DOHH-2, read-out: EC50 (μM) GDC-0941 (single agent)), 0.16 µM; in the assay with HT, 2840 nM; in the assay with SUDHL5, 80 nM. The EC50 was 0.43 µM in the assay on NCI-H929; 1.5 µM in the assay on EJM; 0.06 µM with MOLP-8; at least 10000 nM in the assay on DB; 40 nM in the assay with RI1; 1.23 µM in the assay with OPM2 (Homo sapiens, OPM-2, read-out: EC50 (μM) GDC-0941 (single agent)). In addition, the EC50 in the assay on Bjab was 0.33 µM; in the assay on Bjab (read-out: EC50 (μM) GDC-0941 (single agent)), 0.33 µM; in the assay on MC116 it was 160 nM; in the assay on Toledo it was at least 10000 nM; in the assay with Jeko1 it was 320 nM; in the assay with RPMI-8226 it was 2.53 µM. The 50% effective concentration (EC50) in the assay with SUDHL6 is 10 nM; in the assay on Rec1, 160 nM; with WSUNHL it was 160 nM; in the assay with Ramos it was at least 10000 nM; in the assay with WSU-DLCL2 (WSUDLCL2), 0.13 µM; in the assay on WSU-DLCL2 (WSUDLCL2, read-out: EC50 (μM) GDC-0941 (single agent)), 0.17 µM. The EC50 in the assay on KSM-12-BM was over 5 µM; in the assay on OciLy19, 320 nM; with SUDHL4, 1350 nM; in the assay on MM1.S, 0.22 µM; in the assay on Farage, 240 nM. In addition, the “antitumor activity (mean tumor volume change)” value in assay [3] (FIG. 10, 25 days, GDC-0941 73 mg/kg po daily 21 days, CHOP from day 0) was “only modest activity”; in [3] (FIG. 11, 25 days, GDC-0941 75 mg/kg po qd×21, rituximab 5 mg/kg days 0, 7, 14), “only modest activity”; in [5] (FIG. 7, 20 days, GDC-0941 73 mg/kg po daily 21 days, rituximab 5 mg/kg days 0, 7, 14, CHOP from day 0), “only modest activity”; in assay [8], “significantly different than vehicle”; in [2] it was “indistinguishable and moderate tumor activity”. In [4], the “potency against primary cancer cells (viable cells)” value was “surprising and unexpected degree of potency”. Further, the “effect on tumor growth (mean tumor volume change)” value in assay [5] is recorded as “little effect on tumor growth”. Besides, the “p-AKT signal (flow cytometry)” value in assay [6] is listed as “abolished p-AKT signal”. In [6], the “p-S6RP signal (flow cytometry)” value is recorded as “reduced or abolished p-S6RP signal”. Also, the “p-AKT signal (western blotting)” value in [7] was “significantly reduced (where present)”. In addition, the “p-S6RP signal (western blotting)” value in assay [7] was “significantly reduced (where present)”. Moreover, the “cell viability, relative potency” value in [9] is reported as “significantly more potent than doxorubicin”.

Turning to `Cc1c(CN2CCN(C(=O)[C@H](C)O)CC2)sc2c(N3CCOCC3)nc(-c3cnc(N)nc3)nc12` [Formula Ib, (S)-1-(4-((2-(2-aminopyrimidin-5-yl)-7-methyl-4-morpholinothieno[3,2-d]pyrimidin-6-yl)methyl)piperazin-1-yl)-2-hydroxypropan-1-one], the “effect on tumor growth (mean tumor volume change)” value in assay [5] was “little effect on tumor growth”.

Consider `Nc1cccc2c1CN(C1CCC(=O)NC1=O)C2=O` (stereo not shown) [lenalidomide, 3-(4-amino-1-oxoisoindolin-2-yl)piperidine-2,6-dione], for which the “antitumor activity (mean tumor volume change)” value in assay [1] (setting [10]) is “modest activity”; in assay [2] it was “indistinguishable and moderate tumor activity”.
